This note sets out measurements from BindingDB's records for doi:10.1002/cbic.201200279 (University of Southampton, 2012).

Molecules are shown by their SMILES. pKi: −log10 of the molar value. Square brackets hold non-standard residues; d marks the D form. Peptide text beside a SMILES is read from it. NMeY = CN[C@@H](Cc1ccc(O)cc1)C(=O)O

The target in the test is Bifunctional purine biosynthesis protein ATIC (Homo sapiens, UniProt P31939). The experiment in a line: Enzyme Inhibition Assay. The conditions noted are these: 25 °C. An excerpt: Enzyme inhibition using aminoimidazole carboxamide ribonucleotide transformylase/inosine monophosphate cyclohydrolase (ATIC).
Bifunctional purine biosynthesis protein ATIC, sequence (P31939 whole entry): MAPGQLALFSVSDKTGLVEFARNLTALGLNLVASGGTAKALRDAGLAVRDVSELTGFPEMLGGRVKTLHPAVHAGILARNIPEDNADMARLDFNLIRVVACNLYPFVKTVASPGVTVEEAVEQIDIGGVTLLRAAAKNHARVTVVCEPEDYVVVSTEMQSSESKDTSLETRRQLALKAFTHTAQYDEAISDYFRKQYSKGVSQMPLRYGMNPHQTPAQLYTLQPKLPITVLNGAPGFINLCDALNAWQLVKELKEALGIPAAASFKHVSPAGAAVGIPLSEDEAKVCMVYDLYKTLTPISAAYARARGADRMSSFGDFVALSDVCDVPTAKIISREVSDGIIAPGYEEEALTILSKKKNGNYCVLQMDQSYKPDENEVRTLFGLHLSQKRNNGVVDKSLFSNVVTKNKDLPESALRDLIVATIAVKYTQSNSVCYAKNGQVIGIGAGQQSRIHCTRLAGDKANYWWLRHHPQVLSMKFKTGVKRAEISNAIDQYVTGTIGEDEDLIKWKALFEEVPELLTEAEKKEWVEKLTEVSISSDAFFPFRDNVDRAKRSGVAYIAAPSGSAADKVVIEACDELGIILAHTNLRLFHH

By pKi is commonly meant the negative decadic logarithm of the Ki, by convention in mol/L. `CCNC(=O)[C@H](Cc1ccc(O)cc1)NC(=O)[C@H](CCCN=C(N)N)NC(C)=O` [RY Analogue, 8] (Ac-Arg-Tyr-NHEt) had a negative-log Ki (pKi) of 4.08.

Take `CCNC(=O)[C@H](Cc1ccccc1)NC(=O)[C@H](CCCN=C(N)N)NC(C)=O` [RY Analogue, 9]: the pKi is 3.47. Regarding `CCNC(=O)[C@H](Cc1ccc(F)cc1)NC(=O)[C@H](CCCN=C(N)N)NC(C)=O` [RY Analogue, 10], the pKi was 3.87. In the case of `CCNC(=O)[C@H](Cc1ccc(OC)cc1)NC(=O)[C@H](CCCN=C(N)N)NC(C)=O` [RY Analogue, 11] (Ac-Arg-Tyr(Me)-NHEt) it was 4.06. For the compound `CCNC(=O)[C@H](Cc1ccc(C#N)cc1)NC(=O)[C@H](CCCN=C(N)N)NC(C)=O` [RY Analogue, 12], the pKi is 4.25. In turn, `CCNC(=O)[C@H](Cc1ccc(B(O)O)cc1)NC(=O)[C@H](CCCN=C(N)N)NC(C)=O` [RY Analogue, 13] had a pKi of 4.23.

With `CCNC(=O)[C@H](Cc1ccc([N+](=O)[O-])cc1)NC(=O)[C@H](CCCN=C(N)N)NC(C)=O` [RY Analogue, 14], the pKi was 6.16. On to `CCNC(=O)[C@H](Cc1ccc(O)cc1)N(C)C(=O)[C@H](CCCN=C(N)N)NC(C)=O` [RY Analogue, 16] (Ac-Arg-[NMeY]-NHEt), for which the pKi was 3.84. On to `CCNC(=O)[C@H](Cc1ccc([N+](=O)[O-])cc1)N(C)C(=O)[C@H](CCCN=C(N)N)NC(C)=O` [RY Analogue, 17], for which the pKi was 5.60.
